According to EP1100483B1, “GLUCOCORTICOID-SELECTIVE ANTI-INFLAMMATORY AGENTS” (Abbott Laboratories, priority 1998, dated 2000):

Biological target: T1, human estrogen receptor-alpha (Homo sapiens, UniProt P03372)
T1 construct: made in house; host or cells: yeast strain BJ2168, copper-induced
T1 sequence (P03372 1-595): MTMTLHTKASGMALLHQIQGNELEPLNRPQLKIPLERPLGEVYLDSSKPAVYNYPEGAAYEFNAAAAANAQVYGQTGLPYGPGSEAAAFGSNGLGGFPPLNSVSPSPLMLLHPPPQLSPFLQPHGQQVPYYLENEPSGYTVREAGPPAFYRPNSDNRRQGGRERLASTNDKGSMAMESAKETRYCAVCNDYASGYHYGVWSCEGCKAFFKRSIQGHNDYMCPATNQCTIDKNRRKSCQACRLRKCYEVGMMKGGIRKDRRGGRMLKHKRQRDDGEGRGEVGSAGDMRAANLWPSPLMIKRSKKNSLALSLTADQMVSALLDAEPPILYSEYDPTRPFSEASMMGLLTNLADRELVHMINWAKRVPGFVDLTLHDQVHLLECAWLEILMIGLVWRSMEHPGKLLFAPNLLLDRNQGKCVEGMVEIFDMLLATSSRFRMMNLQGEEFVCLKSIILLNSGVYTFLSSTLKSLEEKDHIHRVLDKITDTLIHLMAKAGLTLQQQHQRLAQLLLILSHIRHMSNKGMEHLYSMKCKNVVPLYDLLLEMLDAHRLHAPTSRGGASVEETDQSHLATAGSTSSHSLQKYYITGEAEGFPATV
Experiment: soluble estrogen receptor-alpha (ER-α) binding assay, [3H]-estradiol competition
Conditions: 2-3 nM [3H]-estradiol, 4 °C for 18 hours; Cheng-Prusoff
Text: For soluble estrogen receptor-alpha (ER-α) binding assays, [^3H]- Estradiol (120-140 Ci/mmol) was purchased from New England Nuclear (Boston, MA), 17-beta estradiol was purchased from Sigma Chemical Co. (St. Louis, MO), CHAPS and DTT were purchased from Boehringer Mannheim GmbH (W. Germany) and all other reagents were purchased from Sigma.
The human estrogen receptor-alpha cDNA was cloned into a yeast vector termed pYhERα and used to transform wild type yeast strain BJ2168 following the protocol outlined by Pham, T.A., Hwung Y.P., Santiso-Mere, D., McDonnell D.P., O'Malley, B.W., Ligand-Dependent and Independent Function of the Transactivation Regions of the Human Estrogen Receptor in Yeast, Mol. Endocrinol. 1992, 6, 1043-1050, hereby incorporated by reference. The yeast was induced with copper for 16 hours after which the cells were harvested, washed and the receptor extract prepared in cold buffer via a Bead Beater (BioSpec Products , Bartlesville, OK). Aliquots of the receptor typically contained 5-10 mg/ml of total protein and were stored at -80 °C until used. Estradiol or other competing compounds were prepared as 5 mM stock solutions in either 100% ethanol or DMSO and serial dilutions were carried out in 1:1 DMSO-ethanol. The assay buffer consisted of the following: 300 mM potassium chloride, 10 mM Trizma Base, 2 mM DTT and 5 mM CHAPS , pH=7.5 at room temperature.
Receptor assays were performed in a 250 µL final volume containing from 5-10 µg of extract protein, plus 2-3 nM [^3H]-estradiol and varying concentrations of competing ligand (0 to 10,000 nM). Assays were set up using a 96-well minitube system and incubations were carried out at 4 °C for 18 hours. Equilibrium under these conditions of buffer and temperature was achieved by 6-8 hours. Nonspecific binding was defined as that binding remaining in the presence of 1000 nM unlabeled estradiol. At the end of the incubation period, 200 µL of 6.25% hydroxyapatite was added in wash buffer (binding buffer in the absence of DTT but containing 1 mM CHAPS). Specific ligand binding to receptor was determined by a hydroxyapatite-binding assay according to the protocol outlined by Wecksler, W.R., Norman, A.W, An Hydroxylapatite Batch Assay for the Quantitation of 1α, 25-Dihydroxyvitamin D3-Receptor Complexes. Anal. Biochem. 1979, 92, 314-323, hereby incorporated by reference. Hydroxyapatite absorbs the receptor-ligand complex, allowing for the separation of bound from free radiolabeled ligand. The mixture was vortexed, incubated for 10 minutes at 4 °C, centrifuged, and the supernatant was removed. The hydroxyapatite pellet was washed twice more with the wash buffer. The amount of receptor-ligand complex was determined by liquid scintillation counting of the hydroxyapatite pellet after the addition of […] EcoScint A scintillation cocktail from National Diagnostics (Atlanta, GA.).
After correcting for nonspecific binding, IC50 values were determined. […] The IC50 values were determined graphically from a log-logit plot of the data. […] Standards are included in each assay and resulting Ki values are determined by use of a modified Cheng-Prusoff equation and used to calculate Ki values for "unknown analogs", DeBlasi, A., O'Reilly, K., Motulsky, H.J., Calculating Receptor Number from Binding Experiments Using Same Compound As Radioligand and Competitor, TIPS 1989, 10, 227-229, hereby incorporated by reference.

SMILES	Ki [nM]
CC(=O)OCCN(C)c1ccc(C(c2ccc(N(C)C)cc2)c2cc([N+](=O)[O-])ccc2Cl)cc1 (stereo not drawn) [Example 51, 4'-dimethylamino-4"-(N-methyl-N-(2-acetoxyethyl)amino)-2-chloro-5-nitrotriphenylmethane]	> 10000
O=[N+]([O-])c1ccc(Cl)c(C(c2ccc(NCc3ccccc3)cc2)c2ccc(NCc3ccccc3)cc2)c1 [Example 36, 4',4" bis(N-benzylamino)-2-chloro-5-nitrotriphenylmethane]	> 10000
CNc1ccc(C(c2ccc(NC)cc2)c2cc([N+](=O)[O-])ccc2Cl)cc1 [Example 23, 4',4" bis(methylamino)-2-chloro-5-nitrotriphenylmethane]	> 10000
CNc1ccc(C(c2ccc(N(C)CCOC(C)=O)cc2)c2cc([N+](=O)[O-])ccc2Cl)cc1 (stereo not drawn) [Example 49, 4'-methylamino-4"-(N-(2-acetoxyethyl)-N-methylamino)-2-chloro-5-nitrotriphenylmethane]	> 10000
CN(C)c1ccc(C(Oc2ccccc2)c2cc([N+](=O)[O-])ccc2Cl)cc1 (stereo not drawn) [Example 52, phenyl-[(4'-dimethylaminophenyl)-(2-chloro-5-nitrophenyl)methyl] ether]	> 10000
CN(C)c1ccc(C(Sc2ccccc2)c2cc([N+](=O)[O-])ccc2Cl)cc1 (stereo not drawn) [Example 54, phenyl-[(4'-dimethylaminophenyl)-(2-chloro-5-nitrophenyl)methyl]thioether]	> 10000
CN(C)c1ccc(C(c2ccc(N(C)CCO)cc2)c2cc([N+](=O)[O-])ccc2Cl)cc1 (stereo not drawn) [Example 42, 4'-dimethylamino-4"-(N-methyl-N-(2-hydroxyethyl)amino)-2-chloro-5-nitrotriphenylmethane]	> 10000
CNc1ccc(C(c2ccc(NC)cc2)c2cc(Cl)ccc2Cl)cc1 [Example 27, 4',4" bis(methylamino)-2,5-dichlorotriphenylmethane]	> 10000
CNc1ccc(C(c2ccc(N(C)C)cc2)c2cc([N+](=O)[O-])ccc2Cl)cc1 (stereo not drawn) [Example 39, 4'-dimethylamino-4"-methylamino-2-chloro-5-nitrotriphenylmethane]	> 10000
